{
  "source": "patent US20240350678A1",
  "about": "“SYSTEMS AND METHODS FOR GENERATION OF HYPERPOLARIZED MATERIALS” (NVISION IMAGING TECHNOLOGIES GMBH, priority 2021, published 2024)",
  "origin": "cited, not measured here",
  "note": "Where two headings read alike, the source gives them in different places.",
  "data": [
    {"smiles": "CC(=O)O", "note": "[acetic acid]", "values": [
      {"measurement": "maximal mole fraction of acetic acid in n-heptane", "setting": "at 14.8° C.", "result": 0.935},
      {"measurement": "maximal mole fraction of acetic acid in n-heptane", "setting": "at −29.2° C.", "result": 0.02}
    ]}
  ]
}
